SMILES strings stand for the structures.

The text below walks through data of patent US20160175306A1, “COMBINATION OF A IMIDAZOPYRIDAZINE DERIVATIVE AND A MITOTIC AGENT FOR THE TREATMENT OF CANCER” (BAYER PHARMA AKTIENGESELLSCHAFT, priority 2013, published 2016).

One data set concerns the target T1, human kinase Mps-1 (Homo sapiens, UniProt P33981).
T1 construct: N-terminally GST-tagged human full length recombinant Mps-1 kinase; purchased Invitrogen, Karslruhe, Germany PV4071
T1 sequence (P33981 1-857): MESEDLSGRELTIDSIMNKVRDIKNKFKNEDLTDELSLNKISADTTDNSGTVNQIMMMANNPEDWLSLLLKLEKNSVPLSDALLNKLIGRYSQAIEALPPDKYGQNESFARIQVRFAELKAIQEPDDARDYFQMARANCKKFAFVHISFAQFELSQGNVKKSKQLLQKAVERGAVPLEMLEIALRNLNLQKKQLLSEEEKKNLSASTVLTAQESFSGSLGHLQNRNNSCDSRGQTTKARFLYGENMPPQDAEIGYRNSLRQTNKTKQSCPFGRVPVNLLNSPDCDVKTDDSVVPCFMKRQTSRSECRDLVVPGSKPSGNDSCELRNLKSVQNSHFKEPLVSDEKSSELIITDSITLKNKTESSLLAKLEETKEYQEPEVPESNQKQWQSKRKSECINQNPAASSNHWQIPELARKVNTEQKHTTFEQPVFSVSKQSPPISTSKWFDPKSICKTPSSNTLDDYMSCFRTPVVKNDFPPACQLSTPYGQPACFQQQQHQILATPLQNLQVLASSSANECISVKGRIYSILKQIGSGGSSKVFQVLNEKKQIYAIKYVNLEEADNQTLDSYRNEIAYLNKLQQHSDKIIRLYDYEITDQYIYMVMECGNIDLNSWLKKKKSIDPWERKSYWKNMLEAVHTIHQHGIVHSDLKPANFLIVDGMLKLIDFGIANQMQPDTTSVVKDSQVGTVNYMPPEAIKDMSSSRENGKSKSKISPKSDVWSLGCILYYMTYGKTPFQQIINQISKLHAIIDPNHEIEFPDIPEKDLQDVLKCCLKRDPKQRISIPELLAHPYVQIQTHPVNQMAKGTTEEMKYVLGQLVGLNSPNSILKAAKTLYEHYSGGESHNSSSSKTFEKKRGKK
In words: Mps-1 Kinase Assay (TR-FRET). The following applies: 10 μM ATP. The class given is biochemical. The method, then: The human kinase Mps-1 phosphorylates a biotinylated substrate peptide. Detection of the phosphorylated product is achieved by time-resolved fluorescence resonance energy transfer (TR-FRET) from Europium-labelled anti-phospho-Serine/Threonine antibody as donor to streptavidin Labelled with cross-linked allophycocyanin (SA-XLent) as acceptor. Compounds are tested for their inhibition of the kinase activity.
N-terminally GST-tagged human full length recombinant Mps-1 kinase (purchased from Invitrogen, Karslruhe, Germany, cat. no PV4071) was used. As substrate for the kinase reaction a biotinylated peptide of the amino-acid sequence […] (C-terminus in amide form, purchased from Biosynthan GmbH, Berlin) was used.
The concentration of Mps-1 in the assay was adjusted to the activity of the enzyme lot and was chosen appropriate to have the assay in the linear range, typical enzyme concentrations were in the range of about 1 nM (final conc. in the 5 μl assay volume).
The resulting mixture was incubated 1 h at 22° C. to allow the binding of the phosphorylated peptide to the anti-phospho(Ser/Thr)-Europium-antibody. Subsequently the amount of phosphorylated substrate was evaluated by measurement of the resonance energy transfer from the Europium-labelled anti-phospho(Ser/Thr) antibody to the Streptavidin-XLent.

The subject of another data set is rat hepatocytes. In words: In vitro metabolic stability in rat hepatocytes. The class given is in vitro ADME. The note with it: 1 μM test compound, calculated from half-life. The method, then:
Investigation of In Vitro Metabolic Stability in Rat Hepatocytes (Including Calculation of Hepatic In Vivo Blood Clearance (CL))
Hepatocytes from Han Wistar rats were isolated via a 2-step perfusion method. After perfusion, the liver was carefully removed from the rat: the liver capsule was opened and the hepatocytes were gently shaken out into a Petri dish with ice-cold WME. The resulting cell suspension was filtered through sterile gaze in 50 ml falcon tubes and centrifuged at 50×g for 3 min at room temperature.
The cell pellet was resuspended in 30 ml WME and centrifuged through a Percoll® gradient for 2 times at 100×g. The hepatocytes were washed again with Williams' medium E (WME) and resuspended in medium containing 5% FCS. Cell viability was determined by trypan blue exclusion.
For the metabolic stability assay liver cells were distributed in WME containing 5% FCS to glass vials at a density of 1.0×10^6 vital cells/m. The test compound was added to a final concentration of 1 μM. During incubation, the hepatocyte suspensions were continuously shaken and aliquots were taken at 2, 8, 16, 30, 45 and 90 min, to which equal volumes of cold methanol were immediately added. Samples were frozen at −20° C. over night, after subsequently centrifuged for 15 minutes at 3000 rpm and the supernatant was analyzed with an Agilent 1200 HPLC-system with LCMS/MS detection.
The half-life of a test compound was determined from the concentration-time plot. From the half-life the intrinsic clearances were calculated. Together with the additional parameters liver blood flow, amount of liver cells in vivo and in vitro. The hepatic in vivo blood clearance (CL) and the maximal oral bioavailability (Fmax) was calculated. The following parameter values were used: Liver blood flow—4.2 L/h/kg rat; specific liver weight—32 g/kg rat body weight; liver cells in vivo—1.1×10^8 cells/g liver, liver cells in vitro—0.5×10^6/ml.

What is called IC50 is the concentration that inhibits the measured activity by half. Lower therefore signals greater potency. As for `Cc1cc(-c2cnc3c(NCCC(F)(F)F)cc(C(O)c4cc(F)ccc4F)nn23)ccc1C(=O)NC1CC1` (racemic) [Compound A11, (RS)—N-Cyclopropyl-4-{6-[(2,5-difluorophenyl)(hydroxy)methyl]-8-[(3,3,3-trifluoropropyl)amino]imidazo[1,2-b]pyridazin-3-yl}-2-methylbenzamide], half-maximal inhibition on human kinase Mps-1 (IC50) was put at 0.3 nM. Moreover, the “Fmax (maximal oral bioavailability)” value in the data set with rat hepatocytes is given as 45%.

`COc1ccc(C(F)(F)c2cc(NCCC(F)(F)F)c3ncc(-c4ccc(C(=O)NC5CC5)c(C)c4)n3n2)cc1F` [Compound A2, N-Cyclopropyl-4-{6-[difluoro(3-fluoro-4-methoxyphenyl)methyl]-8-[(3,3,3-trifluoropropyl)amino]imidazo[1,2-b]pyridazin-3-yl}-2-methylbenzamide] showed an IC50 on human kinase Mps-1 of 0.6 nM. The “Fmax (maximal oral bioavailability)” value in the data set on rat hepatocytes is 64%.

On to `COc1cccc(C(=O)c2cc(NCCC(F)(F)F)c3ncc(-c4ccc(C(=O)NC5CC5)c(C)c4)n3n2)c1` [Compound A7, N-Cyclopropyl-4-{6-(3-methoxybenzoyl)-8-[(3,3,3-trifluoropropyl)amino]imidazo[1,2-b]pyridazin-3-yl}-2-methylbenzamide], for which, on human kinase Mps-1, the half-inhibitory concentration (IC50) turned out to be 0.5 nM. Besides, the “Fmax (maximal oral bioavailability)” value in the data set with rat hepatocytes is given as 26%.

At human kinase Mps-1, `C=C(c1cccc(OC)c1)c1cc(NCCC(F)(F)F)c2ncc(-c3ccc(C(=O)NC4CC4)c(C)c3)n2n1` [Compound A8, N-Cyclopropyl-4-{6-[1-(3-methoxyphenyl)vinyl]-8-[(3,3,3-trifluoropropyl)amino]imidazo[1,2-b]pyridazin-3-yl}-2-methylbenzamide] had a 50% inhibitory concentration (IC50) of 0.8 nM. In addition, in the data set on rat hepatocytes, the “Fmax (maximal oral bioavailability)” value was 57%.

Turning to `COc1ccc(C(=O)c2cc(NCCC(F)(F)F)c3ncc(-c4ccc(C(=O)NC5CC5)c(C)c4)n3n2)cc1` [Compound A9, N-Cyclopropyl-4-{6-(4-methoxybenzoyl)-8-[(3,3,3-trifluoropropyl)amino]imidazo[1,2-b]pyridazin-3-yl}-2-methylbenzamide], the half-maximal inhibitory concentration (IC50) at human kinase Mps-1 is 1.2 nM. In the data set with rat hepatocytes, the “Fmax (maximal oral bioavailability)” value is 71%.

In the case of `C=C(c1ccc(OC)cc1)c1cc(NCCC(F)(F)F)c2ncc(-c3ccc(C(=O)NC4CC4)c(C)c3)n2n1` [Compound A10, N-Cyclopropyl-4-{6-[1-(4-methoxyphenyl)vinyl]-8-[(3,3,3-trifluoropropyl)amino]imidazo[1,2-b]pyridazin-3-yl}-2-methylbenzamide], the IC50 on human kinase Mps-1 turned out to be 0.5 nM. The “Fmax (maximal oral bioavailability)” value in the data set on rat hepatocytes is listed as 48%.

Take `Cc1cc(-c2cnc3c(NCCC(F)(F)F)cc(C(=O)c4cc(F)ccc4F)nn23)ccc1C(=O)NC1CC1` [Compound A12, N-Cyclopropyl-4-{6-(2,5-difluorobenzoyl)-8-[(3,3,3-trifluoropropyl)amino]imidazo[1,2-b]pyridazin-3-yl}-2-methylbenzamide]: half-maximal inhibition at human kinase Mps-1 (IC50) was put at 0.6 nM. The “Fmax (maximal oral bioavailability)” value in the data set on rat hepatocytes is given as 67%.

At human kinase Mps-1, `Cc1cc(-c2cnc3c(NCCC(F)(F)F)cc(C(=O)c4cccc(F)c4F)nn23)ccc1C(=O)NC1CC1` [Compound A14, N-Cyclopropyl-4-{6-(2,3-difluorobenzoyl)-8-[(3,3,3-trifluoropropyl)amino]imidazo[1,2-b]pyridazin-3-yl}-2-methylbenzamide] had an IC50 of 0.6 nM. Moreover, the “Fmax (maximal oral bioavailability)” value in the data set on rat hepatocytes was 51%.

The compound `C=C(c1cc(NCCC(F)(F)F)c2ncc(-c3ccc(C(=O)NC4CC4)c(C)c3)n2n1)c1cccc(F)c1F` [Compound A15, N-Cyclopropyl-4-{6-[1-(2,3-difluorophenyl)vinyl]-8-[(3,3,3-trifluoropropyl)amino]imidazo[1,2-b]pyridazin-3-yl}-2-methylbenzamide] showed an IC50 against human kinase Mps-1 of 0.4 nM. In the data set with rat hepatocytes, the “Fmax (maximal oral bioavailability)” value is recorded as 53%.

Regarding `Cc1cc(-c2cnc3c(NCCC(F)(F)F)cc(C(F)(F)c4cccc(F)c4F)nn23)ccc1C(=O)NC1CC1` [Compound A18, N-Cyclopropyl-4-{6-[(2,3-difluorophenyl)(difluoro)methyl]-8-[(3,3,3-trifluoropropyl)amino]imidazo[1,2-b]pyridazin-3-yl}-2-methylbenzamide], the concentration for half-maximal inhibition (IC50) against human kinase Mps-1 was 1.5 nM. In addition, the “Fmax (maximal oral bioavailability)” value in the data set on rat hepatocytes is on record as 76%.

Take `C=C(c1cc(NCCC(F)(F)F)c2ncc(-c3ccc(C(=O)NC4CC4)c(C)c3)n2n1)c1cc(F)ccc1O` [Compound A22, N-cyclopropyl-4-{6-[1-(5-fluoro-2-hydroxyphenyl)ethenyl]-8-[(3,3,3-trifluoropropyl)amino]imidazo[1,2-b]pyridazin-3-yl}-2-methylbenzamide]: the IC50 at human kinase Mps-1 was found to be 0.4 nM. In the data set on rat hepatocytes, the “Fmax (maximal oral bioavailability)” value is reported as 28%.

In the case of `C=C(c1cccc(F)c1)c1cc(NCCC(F)(F)F)c2ncc(-c3ccc(C(=O)NC4CC4)c(C)c3)n2n1` [Compound A24, N-cyclopropyl-4-{6-[1-(3-fluorophenyl)ethenyl]-8-[(3,3,3-trifluoropropyl)amino]imidazo[1,2-b]pyridazin-3-yl}-2-methylbenzamide], the IC50 against human kinase Mps-1 is 0.3 nM. For the same compound, the “Fmax (maximal oral bioavailability)” value in the data set with rat hepatocytes was 48%.

As for `Cc1cc(-c2cnc3c(NCCC(F)(F)F)cc(C4(c5cccc(F)c5)CC4)nn23)ccc1C(=O)NC1CC1` [Compound A25, N-cyclopropyl-4-{6-[1-(3-fluorophenyl)cyclopropyl]-8-[(3,3,3-trifluoropropyl)amino]imidazo[1,2-b]pyridazin-3-yl}-2-methylbenzamide], the IC50 against human kinase Mps-1 is 0.9 nM. For the same compound, the “Fmax (maximal oral bioavailability)” value with rat hepatocytes was 52%.
